# Measured values reported in patent publication US20070135382A1, “Use of peroxisome proliferator-activated receptor gamma (ppary) and/or retinoic acid receptor (rxr) agonists to inhibit platelet functions” (priority 2003, published 2007).
# Legend:
# [1] = test system: human platelets; assay: Thrombin-induced platelet release of TXB2 (enzyme immunoassay); assay type: cell-based; details: 20 μM for 15 min, then 0.8 U/ml thrombin, 5-60 min
# Experimental: (§1) Platelets were then activated with 0.8 U/ml thrombin or buffer and samples were taken at the 5, 10, 15, 30 and 60 minutes time points to measure human soluble CD40L and PGE2. CD40L assays were performed with a commercially available ELISA specific for CD40L (Bender Biomedical Systems, San Bruno, Calif.). […] The stable end product of platelet TXA2 synthesis, namely TXB2, was measured using a highly specific enzyme immunoassay from Cayman Chemical Company as per the manufacturer's directions.
# (§2) Platelets were then incubated with buffer or with thrombin, a powerful platelet activator.
# [2] = target: T1, PPARγ (Homo sapiens, UniProt P37231); assay: Electrophoretic mobility shift assay for PPARγ DNA binding in Meg-01 cells; assay type: cell-based; details: 15d-PGJ2 5 μM or ciglitazone 10 μM, 4 hours, nuclear extract, vs DMSO
# T1 construct: endogenous in cells; host or cells: purified human blood platelets
# T1 sequence (P37231 1-505): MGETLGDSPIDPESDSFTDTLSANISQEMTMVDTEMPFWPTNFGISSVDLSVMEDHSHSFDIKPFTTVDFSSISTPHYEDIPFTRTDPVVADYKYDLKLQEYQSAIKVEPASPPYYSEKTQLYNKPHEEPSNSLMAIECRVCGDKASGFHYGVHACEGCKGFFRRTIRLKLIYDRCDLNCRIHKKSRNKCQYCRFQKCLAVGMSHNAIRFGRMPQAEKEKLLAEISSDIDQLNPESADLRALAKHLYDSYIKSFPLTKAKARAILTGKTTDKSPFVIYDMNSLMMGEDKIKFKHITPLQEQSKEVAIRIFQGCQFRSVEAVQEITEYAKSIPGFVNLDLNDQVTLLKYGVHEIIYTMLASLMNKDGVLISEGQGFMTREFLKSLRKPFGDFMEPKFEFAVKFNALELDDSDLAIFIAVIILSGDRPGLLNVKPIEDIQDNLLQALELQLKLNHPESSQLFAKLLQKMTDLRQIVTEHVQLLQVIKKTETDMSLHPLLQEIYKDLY
# T1 sequence (P19793 1-462 partner): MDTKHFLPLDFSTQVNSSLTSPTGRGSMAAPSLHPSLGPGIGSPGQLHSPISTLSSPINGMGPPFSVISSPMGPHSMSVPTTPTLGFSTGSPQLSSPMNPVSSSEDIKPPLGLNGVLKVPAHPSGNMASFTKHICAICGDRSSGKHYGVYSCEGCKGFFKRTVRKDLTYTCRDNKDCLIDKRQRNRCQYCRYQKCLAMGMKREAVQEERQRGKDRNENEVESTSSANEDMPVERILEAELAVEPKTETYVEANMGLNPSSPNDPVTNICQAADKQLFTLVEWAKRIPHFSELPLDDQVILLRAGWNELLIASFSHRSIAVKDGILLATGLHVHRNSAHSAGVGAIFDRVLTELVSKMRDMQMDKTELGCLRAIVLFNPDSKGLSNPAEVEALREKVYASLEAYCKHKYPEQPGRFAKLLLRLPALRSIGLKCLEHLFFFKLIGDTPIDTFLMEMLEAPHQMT
# Experimental: Cells were treated with 5 μM 15d-PGJ2, 10 μM ciglitazone, or DMSO (vehicle control) for 4 hours. The cells were washed in cold PBS and then incubated on ice in hypotonic buffer (10 mM HEPES-KOH (pH 7.9), 1.5 mM MgCl2, 10 mM KCl, 0.5 mM DTT, 0.5% Nonidet P-40 and 0.2 mM PMSF) for 10 minutes. The lysates were vortexed for 10 seconds and centrifuged for 15 seconds. The pellet was isolated carefully and re-suspended in 80 μl of hypertonic buffer (20 mM HEPES-KOH (pH 7.9), 1.5 mM MgCl2, 25% glycerol, 420 mM NaCl, 0.2 mM EDTA, 0.5 mM DTT, and 0.2 mM PMSF). After incubation on ice for 20 minutes, lysates were centrifuged for 20 seconds and the supernatant containing the nuclear protein was transferred to new tubes. Protein quantification was performed using a BCA assay kit. Platelet protein isolation was done as described for the PPARγ activity assay. For the gel shift assay of Meg-01 and platelets, the consensus sequence for PPARγ (5′-[…]-3′) (SEQ ID NO: 1) was labeled with [γ-32P]ATP using T4 Polynucleotide Kinase (Life technologies). Micro Bio-Spin P-30 Tris Chromatography Columns were used to remove the unbound nucleotides (Bio-Rad). […]
# [3] = test system: human platelets; assay: Thrombin-induced platelet release of PGE2 (enzyme immunoassay); assay type: cell-based; details: 20 μM for 15 min, then 0.8 U/ml thrombin
# Experimental: as §1
# [4] = test system: platelets; assay: Platelet aggregation in platelet rich plasma (turbidometric method of Born); assay type: cell-based, human
# Experimental: Platelet aggregation was performed using the turbidometric method of Born (“Quantitative Investigations into the Aggregation of Blood Platelets,” J. Physiol. Lond. 162:67 (1962), which is hereby incorporated by reference in its entirety) with simultaneous measurement of ATP release using a Chrono-log Lumi-aggregometer with AGGRO/LINK for Windows Software version 5.1.6 (Chrono-log Corp., Havertown, Pa.). Blood was collected by clean venipuncture from normal donors who abstained from drugs known to affect platelet aggregation into 0.105M/sodium citrate. Platelet rich plasma (PRP) was prepared by centrifugation at 150×g for 10 min at 20° C., and the platelet count adjusted to 250,000/μl by mixing PRP and platelet poor plasma from the same donor. All experiments were performed within 3 hours of blood collection. Aggregation was performed with ADP, and the slope of aggregation and amplitude were computed using accompanying software. The effects of the PPARγ agonist 15d-PGJ2 were tested by addition of varying concentrations to PRP for 15 min before aggregation. The 15d-PGJ2 was dissolved in DMSO, with a final concentration of DMSO in the samples of approximately 0.1%.
# [5] = target: T1, PPARγ; assay: TransAM PPARγ DNA binding activity assay in platelets; assay type: cell-based; details: platelets exposed to 20 μM agonist, 2 h at 37° C.
# Experimental: Platelets were lysed with hypotonic buffer (10 mM HEPES-KOH (pH 7.9), 1.5 mM MgCl2, 10 mM KCl, 0.5 mM DTT, 0.5% Nonidet P-40 and 0.2 mM PMSF) and 10 μg of cell extract was incubated in each well of TransAM® PPARγ assay kit (Active Motif, Carlsbad, Calif.) and PPARγ DNA binding was determined as per manufacturers' protocol.
# The ability of platelet derived PPARγ to bind its DNA consensus sequence was also measured using the TransAM™ PPARγ assay kit (Active Motif Inc.). In this method the consensus DNA sequence for PPARγ binding (or as a control mutated oligonucleotides) is plate-bound. A cell lysate is then added to the well, washed and next incubated with an enzyme-conjugated anti-PPARγ antibody that recognizes only DNA-bound PPARγ. Following substrate addition, a colored product is formed.
# [6] = test system: human platelets; assay: Thrombin-induced platelet release of CD40L (ELISA); assay type: cell-based; details: 20 μM for 15 min, then 0.8 U/ml thrombin, 5-60 min
# Experimental: as §1, §2
# [7] = test system: Human blood; assay: PFA-100 clotting (closure) time in human blood; assay type: cell-based; details: vs vehicle only, p=0.012
# Experimental: Platelet activation was induced using epinephrine or ADP, and clotting time was assessed using a PFA-100. The PFA-100 allows for an approximation of bleeding times in patients. Longer closure times equal a lower ability to form a clot. […] Human blood was exposed to 15d-PGJ2 or vehicle only followed by testing in the PFA-100 activated with ADP.
# [8] = test system: platelets; assay: ATP release from platelets during aggregation (Lumi-aggregometry); details: 20 μM
# Experimental: ATP release from platelets during aggregation was characterized by Lumi-Aggregometry after stimulation with thrombin (1 U/ml) or ADP (5 μM). […] The rate of release with normal platelets was defined as 100%. […] The results represent mean±SEM of three experiments.
# Platelet aggregation was performed using the turbidometric method of Born (“Quantitative Investigations into the Aggregation of Blood Platelets,” J. Physiol. Lond. 162:67 (1962), which is hereby incorporated by reference in its entirety) with simultaneous measurement of ATP release using a Chrono-log Lumi-aggregometer with AGGRO/LINK for Windows Software version 5.1.6 (Chrono-log Corp., Havertown, Pa.). Blood was collected by clean venipuncture from normal donors who abstained from drugs known to affect platelet aggregation into 0.105M/sodium citrate. Platelet rich plasma (PRP) was prepared by centrifugation at 150×g for 10 min at 20° C., and the platelet count adjusted to 250,000/μl by mixing PRP and platelet poor plasma from the same donor. All experiments were performed within 3 hours of blood collection. Aggregation was performed with ADP, and the slope of aggregation and amplitude were computed using accompanying software. The effects of the PPARγ agonist 15d-PGJ2 were tested by addition of varying concentrations to PRP for 15 min before aggregation. The 15d-PGJ2 was dissolved in DMSO, with a final concentration of DMSO in the samples of approximately 0.1%. […] Additional clotting studies were performed using a PFA-100 according to the manufacturer's instructions. Basically, clotting time (induced by clotting activator such as epinephrine or ADP) was measured in the presence or absence of a PPARγ agonist, and differences noted.
# To determine if a PPARγ agonist would inhibit platelet aggregation, the natural PPARγ agonist 15d-PGJ2 was added to PRP and aggregation and ATP release stimulated with ADP.
smiles,measurement,setting,value
"CCCCC/C=C/C=C1/C(=O)C=C[C@@H]1C/C=C\CCCC(=O)O [15d-PGJ2, 15D-prostaglandin J2]",release of TXB2,[1],largely prevented
same,level of active (DNA binding) PPARγ in Meg-01 cells by EMSA,[2],increased
same,thrombin-induced release of PGE2,[3],substantially prevented
same,aggregation slope (rate),"[4]; 10 μM, ADP as platelet agonist",decrease the aggregation slope
same,"initial slope of platelet aggregation, % of the normal (untreated)","[4]; 20 μM, ADP-stimulated PRP, first 16 seconds, mean±SEM, n=7",83±5%
same,"amplitude of aggregation, % of normal platelets","[4]; 20 μM, ADP-stimulated PRP, mean±SEM, n=7",64±11%
same,"platelet aggregation, concentration dependence","[4]; varying concentrations, 15 min before ADP",concentration dependent inhibition
same,binding to the PPARγ DNA response element (TransAM),[5],significantly enhances binding
same,release of CD40L,[6],largely prevented
same,"PFA-100 closure time, ADP activated",[7],takes longer to form a closure
same,"ATP release amplitude, % of normal platelets","[8]; ADP-stimulated, n=7",22±10%
same,"ATP release slope, % of normal","[8]; ADP-stimulated, n=7",15±5%
same,rate of ATP release with thrombin,[8]; thrombin 1 U/ml,significant (P=0.002) reduction
